For one data set, the target named is human VMAT2 (Homo sapiens (Human), UniProt Q05940). Briefly: VMAT2 radioligand binding, 3H-dihydrotetrabenazine competition on human platelet homogenate. The conditions noted are these: 10 nM 3H-dihydrotetrabenazine, human platelet homogenate, 25° C., 90 minutes; read-out: VMAT2 Ki. An outline of the steps:
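Ki from scintillation counting of filter-bound ³H-dihydrotetrabenazine (10 nM) after 90 min, 25 °C incubation with twelve concentrations of compound. Membranes: human platelet homogenate, 30 μg protein per well; buffer DPBS, 1 mM EDTA, pH 7.4.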

Data set [1] can be described thus: Stability of compounds in human liver microsomes. In kind it is in vitro ADME. The conditions noted are these: for CLint scaled at 0.5 μM / half-life at 0.5 μM: both sexes, pH 7.4; for CLint scaled at 0.5 μM: liver microsomes, calculated from HLM half-life, read-out: HLM Scaled Intrinsic Clearance; for CLint scaled at 0.5 μM / Predicted Max. Bioavailability (% F) / HLM Predicted Systemic Clearance: human; for half-life at 0.5 μM: 0.5 μM compound, 0.5 mg/mL human liver microsomes, 37° C., maxed at 420 minutes, read-out: HLM Elimination half-life (t1/2, min); for Predicted Max. Bioavailability (% F): predicted from HLM data; for HLM Predicted Systemic Clearance: scaled from HLM half-life (Obach method). An outline of the steps:
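Compound at 0.5 μM incubated at 37 °C with pooled mixed-gender human liver microsomes (0.5 mg/mL protein) and an NADPH-generating system in pH 7.4 phosphate buffer, sampled 0–60 min. Parent depletion tracked by LC-MS/MS; t1/2 derived from the slope by non-linear regression, with predicted extraction ratio and maximum bioavailability also calculated.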

As usually defined, the Ki is the dissociation constant of the complex between target and ligand, obtained from inhibition or displacement.

Each structure is given as a SMILES string.

human VMAT2, sequence (Q05940 whole entry): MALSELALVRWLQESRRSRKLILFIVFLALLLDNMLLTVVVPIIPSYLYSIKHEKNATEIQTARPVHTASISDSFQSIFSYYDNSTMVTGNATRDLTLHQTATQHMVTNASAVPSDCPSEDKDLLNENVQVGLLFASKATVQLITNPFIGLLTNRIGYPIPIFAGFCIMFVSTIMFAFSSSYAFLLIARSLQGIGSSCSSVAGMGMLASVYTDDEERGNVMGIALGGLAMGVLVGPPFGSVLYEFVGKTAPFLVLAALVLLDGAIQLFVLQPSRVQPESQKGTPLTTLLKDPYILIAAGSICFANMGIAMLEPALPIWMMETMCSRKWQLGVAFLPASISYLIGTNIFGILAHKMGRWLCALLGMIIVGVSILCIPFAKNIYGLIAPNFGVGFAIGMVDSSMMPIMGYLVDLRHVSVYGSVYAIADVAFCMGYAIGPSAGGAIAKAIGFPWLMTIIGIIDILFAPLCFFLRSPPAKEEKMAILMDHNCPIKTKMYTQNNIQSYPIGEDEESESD

For the compound `CC[C@H](O)COc1cc2c(cc1OC)[C@H]1C[C@@H](O)[C@H](CC(C)(C)C)CN1CC2` [Compound 4-68, (2R,3R,11bR)-3-(2,2-dimethylpropyl)-9-[(2S)-2-hydroxybutoxy]-10-methoxy-1H,2H,3H,4H,6H,7H,11bH-pyrido[2,1-a]isoquinolin-2-ol], at human VMAT2, the Ki amounted to 0.029 µM. In data set [1], the CLint scaled at 0.5 μM was 6.37 mL/min/kg, the half-life at 0.5 μM worked out at 196 min, the “Predicted Max. Bioavailability (% F)” value is on record as 76 % F and the “HLM Predicted Systemic Clearance” value was 4.83 mL/min/kg.

As to `COc1cc2c(cc1OCc1ccon1)CCN1C[C@@H](CC(C)(C)C)[C@H](O)C[C@H]21` [Compound 4-69, (2R,3R,11bR)-3-(2,2-dimethylpropyl)-10-methoxy-9-(1,2-oxazol-3-ylmethoxy)-1H,2H,3H,4H,6H,7H,11bH-pyrido[2,1-a]isoquinolin-2-ol], on human VMAT2, the inhibition constant (Ki) was found to be 0.032 µM. For the same compound, in data set [1], the CLint scaled at 0.5 μM was 15.5 mL/min/kg, the half-life at 0.5 μM is 80 min, the “Predicted Max. Bioavailability (% F)” value is 56 % F and the “HLM Predicted Systemic Clearance” value was 8.74 mL/min/kg.

Take `COc1cc2c(cc1OCCOCC#N)CCN1C[C@@H](CC(C)(C)C)[C@H](O)C[C@H]21` [Compound 4-70, 2-(2-{[(2R,3R,11bR)-3-(2,2-dimethylpropyl)-2-hydroxy-10-methoxy-1H,2H,3H,4H,6H,7H,11bH-pyrido[2,1-a]isoquinolin-9-yl]oxy}ethoxy)acetonitrile]: the inhibition constant Ki at human VMAT2 was 0.036 µM. Also, in data set [1], the CLint scaled at 0.5 μM is 11.4 mL/min/kg, the half-life at 0.5 μM was found to be 110 min, the “Predicted Max. Bioavailability (% F)” value is given as 64 % F and the “HLM Predicted Systemic Clearance” value is 7.25 mL/min/kg.

Consider `COc1cc2c(cc1OCCN1CCC(F)(F)C1)CCN1C[C@@H](CC(C)(C)C)[C@H](O)C[C@H]21` [Compound 4-71, (2R,3R,11bR)-9-[2-(3,3-difluoropyrrolidin-1-yl)ethoxy]-3-(2,2-dimethylpropyl)-10-methoxy-1H,2H,3H,4H,6H,7H,11bH-pyrido[2,1-a]isoquinolin-2-ol], for which the Ki at human VMAT2 turned out to be 0.037 µM. Besides, in data set [1], the CLint scaled at 0.5 μM was 38.4 mL/min/kg, the half-life at 0.5 μM was 33 min, the “Predicted Max. Bioavailability (% F)” value is listed as 34 % F and the “HLM Predicted Systemic Clearance” value was 13.15 mL/min/kg.

Take `COc1cc2c(cc1OCC1(F)COCCOC1)CCN1C[C@@H](CC(C)(C)C)[C@H](O)C[C@H]21` [Compound 4-72, (2R,3R,11bR)-3-(2,2-dimethylpropyl)-9-[(6-fluoro-1,4-dioxepan-6-yl)methoxy]-10-methoxy-1H,2H,3H,4H,6H,7H,11bH-pyrido[2,1-a]isoquinolin-2-ol]: the Ki on human VMAT2 was 0.051 µM. For the same compound, in data set [1], the CLint scaled at 0.5 μM was 15.6 mL/min/kg, the half-life at 0.5 μM came out at 80 min, the “Predicted Max. Bioavailability (% F)” value is given as 56 % F and the “HLM Predicted Systemic Clearance” value is 8.77 mL/min/kg.

With `COc1cc2c(cc1OCC1CCN(C#N)CC1)CCN1C[C@@H](CC(C)(C)C)[C@H](O)C[C@H]21` [Compound 4-73], on human VMAT2, the inhibitory constant (Ki) is 0.051 µM. For the same compound, in data set [1], the CLint scaled at 0.5 μM is 10.5 mL/min/kg, the half-life at 0.5 μM was found to be 119 min, the “Predicted Max. Bioavailability (% F)” value is listed as 66 % F and the “HLM Predicted Systemic Clearance” value was 6.88 mL/min/kg.

As to `COc1cc2c(cc1OCCc1ccc(C(F)(F)F)cc1)CCN1C[C@@H](CC(C)(C)C)[C@H](O)C[C@H]21` [Compound 4-74, (2R,3R,11bR)-3-(2,2-dimethylpropyl)-10-methoxy-9-{2-[4-(trifluoromethyl)phenyl]ethoxy}-1H,2H,3H,4H,6H,7H,11bH-pyrido[2,1-a]isoquinolin-2-ol], at human VMAT2, the inhibition constant (Ki) was 0.065 µM. Besides, in data set [1], the CLint scaled at 0.5 μM was 34.6 mL/min/kg, the half-life at 0.5 μM was determined as 36 min, the “Predicted Max. Bioavailability (% F)” value was 37 % F and the “HLM Predicted Systemic Clearance” value is 12.68 mL/min/kg.

As to `COc1cc2c(cc1OCc1cocn1)CCN1C[C@@H](CC(C)(C)C)[C@H](O)C[C@H]21` [Compound 4-75, (2R,3R,11bR)-3-(2,2-dimethylpropyl)-10-methoxy-9-(1,3-oxazol-4-ylmethoxy)-1H,2H,3H,4H,6H,7H,11bH-pyrido[2,1-a]isoquinolin-2-ol], at human VMAT2, the inhibitory constant (Ki) is 0.076 µM. For the same compound, in data set [1], the CLint scaled at 0.5 μM was 11.9 mL/min/kg, the half-life at 0.5 μM was determined as 104 min, the “Predicted Max. Bioavailability (% F)” value is on record as 63 % F and the “HLM Predicted Systemic Clearance” value is 7.48 mL/min/kg.

Turning to `COc1cc2c(cc1OCC1(O)CCC(F)(F)CC1)CCN1C[C@@H](CC(C)(C)C)[C@H](O)C[C@H]21` [Compound 4-76, (2R,3R,11bR)-9-[(4,4-difluoro-1-hydroxycyclohexyl)methoxy]-3-(2,2-dimethylpropyl)-10-methoxy-1H,2H,3H,4H,6H,7H,11bH-pyrido[2,1-a]isoquinolin-2-ol], the Ki at human VMAT2 was determined as 0.082 µM. For the same compound, in data set [1], the CLint scaled at 0.5 μM is not above 2.97 mL/min/kg, the half-life at 0.5 μM is not below 420 min, the “Predicted Max. Bioavailability (% F)” value was not below 87 % F and the “HLM Predicted Systemic Clearance” value was not above 2.59 mL/min/kg.

As to `COc1cc2c(cc1OCc1cccc(C#N)n1)CCN1C[C@@H](CC(C)(C)C)[C@H](O)C[C@H]21` [Compound 4-77, 6-({[(2R,3R,11bR)-3-(2,2-dimethylpropyl)-2-hydroxy-10-methoxy-1H,2H,3H,4H,6H,7H,11bH-pyrido[2,1-a]isoquinolin-9-yl]oxy}methyl)pyridine-2-carbonitrile], the Ki at human VMAT2 amounted to 0.085 µM. In data set [1], the CLint scaled at 0.5 μM is 8.01 mL/min/kg, the half-life at 0.5 μM is 156 min, the “Predicted Max. Bioavailability (% F)” value is given as 71 % F and the “HLM Predicted Systemic Clearance” value is 5.72 mL/min/kg.

With `COc1cc2c(cc1OCC1CC(O)(C(F)(F)F)C1)CCN1C[C@@H](CC(C)(C)C)[C@H](O)C[C@H]21` (stereo partly drawn) [Compound 4-78, (2R,3R,11bR)-3-(2,2-dimethylpropyl)-9-{[3-hydroxy-3-(trifluoro-methyl)cyclobutyl]methoxy}-10-methoxy-1H,2H,3H,4H,6H,7H,11bH-pyrido[2,1-a]isoquinolin-2-ol], on human VMAT2, the Ki stood at 0.092 µM. In data set [1], the CLint scaled at 0.5 μM is 6.41 mL/min/kg, the half-life at 0.5 μM worked out at 195 min, the “Predicted Max. Bioavailability (% F)” value is recorded as 76 % F and the “HLM Predicted Systemic Clearance” value was 4.86 mL/min/kg.

As to `COc1cc2c(cc1OCC(O)COCC(F)(F)F)CCN1C[C@@H](CC(C)(C)C)[C@H](O)C[C@H]21` (stereo partly shown) [Compound 4-79], the inhibition constant (Ki) on human VMAT2 is 0.099 µM. Further, in data set [1], the CLint scaled at 0.5 μM was 5.88 mL/min/kg, the half-life at 0.5 μM amounted to 212 min, the “Predicted Max. Bioavailability (% F)” value is recorded as 77 % F and the “HLM Predicted Systemic Clearance” value was 4.54 mL/min/kg.

On to `COc1cc2c(cc1OCC1CC1)CCN1C[C@@H](CC(C)(C)C)[C@H](O)C[C@H]21` [Compound 4-88, (2R,3R,11bR)-9-(cyclopropylmethoxy)-3-(2,2-dimethylpropyl)-10-methoxy-1H,2H,3H,4H,6H,7H,11bH-pyrido[2,1-a]isoquinolin-2-ol], for which the inhibitory constant (Ki) on human VMAT2 turned out to be 0.00068 µM. In addition, in data set [1], the CLint scaled at 0.5 μM is 28.1 mL/min/kg, the half-life at 0.5 μM was found to be 44 min, the “Predicted Max. Bioavailability (% F)” value is 42 % F and the “HLM Predicted Systemic Clearance” value was 11.68 mL/min/kg.

As for `CC[C@@H]1C[C@H]1COc1cc2c(cc1OC)[C@H]1C[C@@H](O)[C@H](CC(C)(C)C)CN1CC2` [Compound 4-90, (2R,3R,11bR)-3-(2,2-dimethylpropyl)-9-{[(1R,2R)-2-ethylcyclopropyl]methoxy}-10-methoxy-1H,2H,3H,4H,6H,7H,11bH-pyrido[2,1-a]isoquinolin-2-ol], on human VMAT2, the Ki was 0.00029 µM. Further, in data set [1], the CLint scaled at 0.5 μM was 156 mL/min/kg, the half-life at 0.5 μM came to 8 min, the “Predicted Max. Bioavailability (% F)” value was 11 % F and the “HLM Predicted Systemic Clearance” value is 17.72 mL/min/kg.

On to `COc1cc2c(cc1OC[C@@H](C)OC)CCN1C[C@@H](CC(C)(C)C)[C@H](O)C[C@H]21` [Compound 4-91, (2R,3R,11bR)-3-(2,2-dimethylpropyl)-10-methoxy-9-[(2R)-2-methoxypropoxy]-1H,2H,3H,4H,6H,7H,11bH-pyrido[2,1-a]isoquinolin-2-ol], for which the Ki on human VMAT2 came out at 0.028 µM. For the same compound, in data set [1], the CLint scaled at 0.5 μM was 19.7 mL/min/kg, the half-life at 0.5 μM was determined as 63 min, the “Predicted Max. Bioavailability (% F)” value is listed as 50 % F and the “HLM Predicted Systemic Clearance” value is 9.92 mL/min/kg.

Turning to `COc1cc2c(cc1OC[C@H](C)OC)CCN1C[C@@H](CC(C)(C)C)[C@H](O)C[C@H]21` [Compound 4-92, (2R,3R,11bR)-3-(2,2-dimethylpropyl)-10-methoxy-9-[(2S)-2-methoxypropoxy]-1H,2H,3H,4H,6H,7H,11bH-pyrido[2,1-a]isoquinolin-2-ol], at human VMAT2, the Ki was 0.051 µM. Moreover, in data set [1], the CLint scaled at 0.5 μM is 25.5 mL/min/kg, the half-life at 0.5 μM is 49 min, the “Predicted Max. Bioavailability (% F)” value is on record as 44 % F and the “HLM Predicted Systemic Clearance” value is 11.2 mL/min/kg.

As for `COc1cc2c(cc1OC[C@H](C)O)CCN1C[C@@H](CC(C)(C)C)[C@H](O)C[C@H]21` [Compound 4-114, (2R,3R,11bR)-3-(2,2-dimethylpropyl)-9-[(2S)-2-hydroxypropoxy]-10-methoxy-1H,2H,3H,4H,6H,7H,11bH-pyrido[2,1-a]isoquinolin-2-ol], the Ki at human VMAT2 was found to be 0.07 µM. Also, in data set [1], the CLint scaled at 0.5 μM is not above 2.97 mL/min/kg, the half-life at 0.5 μM is not below 420 min, the “Predicted Max. Bioavailability (% F)” value was not below 87 % F and the “HLM Predicted Systemic Clearance” value was not above 2.59 mL/min/kg.
